Results on eight molecules are retold here after patent US11142533B2, “Macrocycles for use in treating disease” (TURNING POINT THERAPEUTICS, INC., priority 2019, dated 2021).

One data set addresses KG-1 cell (OP2-FGFR1) (Homo sapiens, UniProt P11362). Description: Cell proliferation assay (CellTiter-Glo). On the technique in general: In ATP-based viability assays light output follows the ATP content of the culture.
The next data set has as its target KM12 (TPM3-TRKA) (Homo sapiens, UniProt P04629). Description: Cell proliferation assay (CellTiter-Glo).
Data set [1] is described as follows: Solubility test in phosphate buffer. Type of data set: physicochemical. To be noted: aqueous buffer, thermodynamic from solid; phosphate buffer pH 7.4, room temperature. On the procedure:
Aliquot of 1.035 mL phosphate buffer (PB) (pH 7.4) was added into 2.07 mg of the test compound (for a 2 mg·mL^−1 upper limiting solubility determination) in a 1.5 mL tubes. The mixture was ultrasonicly treated for 10 min and rotated on rotator at room temperature for more than 8 hr. After rotation, the tube was ultrasonicly treated for 10 min and centrifuged at 13000 rpm for 15 min. 0.3 mL of the supernatant was transferred into a 0.6 mL tube and discarded after rotated for 5 min for rinsing, then about 0.6 mL of the residual supernatant was transferred into the rinsed tube and centrifuged again at 13000 rpm for 15 min. The supernatant after every centrifugation was appropriately diluted and transferred for LC-MS/MS analysis where a standard curve was constructed with 7 concentration levels (2, 4, 10, 20, 40, 100 and 200 μg mL^−1) and used for the quantitation of the analyte in PB.

The nature of data set [2]: Liver microsomal stability. To be noted: pH 7.4, 1 μM compound, 0.5 mg/mL liver microsome protein. The format is in vitro ADME. On the procedure:
The test compound stock solution was prepared by weighing 1.07 mg and dissolving in 0.261 mL of DMSO to achieve the concentration of 10 mM. Working solution of the test compound was prepared by diluting stock solution using DMSO to yield the concentration of 300 μM.
The assay was carried out in 96-well microtiter plates. In each well, the reaction mixture (25 μL) contained the test compound at the final concentration of 1 μM, 0.5 mg/mL liver microsome protein, and 1 mM NADPH in 100 mM potassium phosphate, pH 7.4 buffer with 3.3 mM MgCl2. The mixtures were incubated in duplicate at 37° C. for 0, 15, 30 or 60 minutes, and 150 μL of quench solution (acetonitrile with 0.1% formic acid) with internal standard (bucetin for positive ESI mode) was added into each well of reaction to terminate the reaction. The plates were then sealed and centrifuged at 4° C. for 15 minutes at 4000 rpm. The resulting supernatant was transferred to fresh plates for LC-MS/MS analysis of the test compounds. Verapamil was used as the positive control to validate the assay system.
All samples were analyzed with LC-MS/MS using an AB Sciex API 4000 instrument, coupled to a Shimadzu LC-20AD LC Pump system. Analytical samples were separated using a Waters Atlantis T3 dC18 reverse phase HPLC column (20 mm×2.1 mm) at a flow rate of 0.5 mL/min. The mobile phase consisted of 0.1% formic acid in water (solvent A) and 0.1% formic acid in acetonitrile (solvent B).
The extent of metabolism was calculated based on the disappearance of the test compound, compared to its initial concentration. The initial rates of clearance of test compounds were calculated using linear regression plot of semi-log % remaining of compounds versus time. The elimination rate constant (equals to negative slope) of the linear regression plot was then used to determine t112 and the intrinsic clearance (CLInt) using the following formula: k=−slope t1/2=0.693/k CLint=k/Cprotein
Where Cprotein (mg/mL) is the microsomal protein concentration in the incubation system.

A short description of data set [3]: Mouse pharmacokinetic study. To be noted: single oral dose (dose level not given), plasma. Type of data set: in vivo. As for the experimental part:
To prepare 1 L of the vehicle solution (0.5% CMC and 1.0% Tween 80), 10 g of Tween 80 was mixed with 985 mL of water into a 1 L bottle. The mixture was stirred until Tween 80 was completely dissolved. With continued stirring, 5 g of CMC was very slowly sprinkled into the solution. Stirring was continued until all CMC was dissolved, which might take several hr. The resulting vehicle solution was stored at 4° C.
The compound was suspended in the vehicle solution and the mice were orally administrated with a single dose of the compound at the selected dose level. The blood samples were collected according to the defined time table into tubes containing K2-EDTA, followed by gentle mixing to assure distribution of the anti-coagulant. Immediately after the blood sample was collected and mixed, it was placed on ice. The samples were then centrifuged at 4° C. for 10 minutes at 5,000 RPM. The plasma was harvested into pre-labeled tubes and stored at −80° C. until analyzed by LC-MS/MS.

Where [4] appears, read: female, mouse, liver microsomes.

In brackets after ≈: the same amount, converted by molar mass. Bounds are passed on as bounds.

Sequence of KM12 (TPM3-TRKA) (P04629 with tags, fused parts or gaps): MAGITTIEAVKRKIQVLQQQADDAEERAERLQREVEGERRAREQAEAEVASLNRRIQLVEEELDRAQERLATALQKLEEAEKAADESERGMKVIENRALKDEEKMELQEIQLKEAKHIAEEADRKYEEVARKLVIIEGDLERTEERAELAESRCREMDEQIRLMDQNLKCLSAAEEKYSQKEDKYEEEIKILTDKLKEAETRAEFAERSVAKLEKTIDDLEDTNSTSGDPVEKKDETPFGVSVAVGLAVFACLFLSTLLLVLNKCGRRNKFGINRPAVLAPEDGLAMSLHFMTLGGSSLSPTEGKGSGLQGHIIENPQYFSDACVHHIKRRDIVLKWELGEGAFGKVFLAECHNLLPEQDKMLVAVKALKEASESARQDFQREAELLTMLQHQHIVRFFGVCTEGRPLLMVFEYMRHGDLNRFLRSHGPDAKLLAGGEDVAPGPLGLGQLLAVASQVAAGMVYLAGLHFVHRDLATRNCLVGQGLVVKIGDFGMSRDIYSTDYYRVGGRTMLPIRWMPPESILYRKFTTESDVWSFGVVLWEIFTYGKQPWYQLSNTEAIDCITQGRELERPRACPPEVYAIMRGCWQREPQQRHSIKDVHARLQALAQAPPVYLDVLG
Sequence of KG-1 cell (OP2-FGFR1) (P11362 456-822 limits assumed): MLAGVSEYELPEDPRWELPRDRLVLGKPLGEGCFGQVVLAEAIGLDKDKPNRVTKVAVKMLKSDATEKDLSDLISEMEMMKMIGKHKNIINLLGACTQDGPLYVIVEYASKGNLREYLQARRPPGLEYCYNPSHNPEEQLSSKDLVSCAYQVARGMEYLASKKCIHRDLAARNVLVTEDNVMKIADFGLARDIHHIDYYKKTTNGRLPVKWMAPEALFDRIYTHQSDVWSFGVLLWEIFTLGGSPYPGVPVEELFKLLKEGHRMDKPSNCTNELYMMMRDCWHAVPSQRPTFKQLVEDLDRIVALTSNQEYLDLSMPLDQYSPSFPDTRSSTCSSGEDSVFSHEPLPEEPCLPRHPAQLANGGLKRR

For `O=C1NCCCOc2ccc(F)cc2CN2c3nc4c1cnn4cc3OC[C@H]2C(F)F` [Compound 3, (16S)-16-(Difluoromethyl)-12-fluoro-5,6,7,8,16,17-hexahydro-4H,14H-1,19-(metheno)[1,4]oxazino[3,4-j]pyrazolo[4,3-g][1,5,9,11]benzoxatriazacyclotetradecin-4-one], the IC50 (as a rule, the concentration that inhibits the measured activity by half) against KG-1 cell (OP2-FGFR1) was 75.3 nM; against KM12 (TPM3-TRKA), below 0.2 nM.
For `C[C@@H]1COc2ncc(F)cc2CN2c3nc4c(cnn4cc3OC[C@H]2C)C(=O)N1` [Comp. Ex. 1, reference compound], the solubility (usually the dissolved amount per volume that the medium holds) in data set [1] was determined as 7.9 µg/mL (≈ 19.8 µM). The intrinsic metabolic clearance (microsomal CLint) (in general, the capacity of the preparation to metabolise the compound, expressed as a volume cleared per time) at 1 µM in data set [2] (setting [4]) stood at 22 µL/min/mg; in data set [2] (female, rat, liver microsomes) it was 10 µL/min/mg; in data set [2] (human, pooled liver microsomes), 2.6 µL/min/mg. Moreover, the concentration for half-maximal inhibition (IC50) is 22.2 nM on KG-1 cell (OP2-FGFR1) and below 0.2 nM on KM12 (TPM3-TRKA). Moreover, the AUC (usually the area under the concentration-time curve, a measure of exposure) in data set [3] was determined as 12300 ng·h/mL. Moreover, in data set [3], the highest concentration (Cmax) – broadly, the maximum level reached in the sampled fluid or tissue – amounted to 4190 ng/mL. The time to peak (Tmax) (in general, the time from dosing to the highest level) in data set [3] was 30 min.
As to `CC1(C)CNC(=O)c2cnn3cc4c(nc23)N(Cc2cc(F)ccc2OC1)[C@H](C(F)F)CO4` [Compound 7, (16S)-16-(Difluoromethyl)-12-fluoro-7,7-dimethyl-5,6,7,8,16,17-hexahydro-4H,14H-1,19-(metheno)[1,4]oxazino[3,4-j]pyrazolo[4,3-g][1,5,9,11]benzoxatriazacyclotetradecin-4-one], the results for the IC50 at KG-1 cell (OP2-FGFR1) and at KM12 (TPM3-TRKA) were 40.7 nM and below 0.2 nM, respectively.
In the case of `O=C1NC2(CC2)COc2ccc(F)cc2CN2c3nc4c1cnn4cc3OC[C@H]2C(F)F` [Compound 4, (4′S)-4′-(Difluoromethyl)-8′-fluoro-3′H,4′H,6′H,12′H,14′H,15′H-spiro[cyclopropane-1,13′-[18,1](metheno)[1,4]oxazino[3,4-i]pyrazolo[4,3-f][1,4,8,10]benzoxatriazacyclotridecin]-15′-one], the IC50 at KG-1 cell (OP2-FGFR1) is 60.9 nM.
Consider `CC1(C)CCOc2ccc(F)cc2CN2c3nc4c(cnn4cc3OC[C@H]2C(F)F)C(=O)N1` [Compound 8, (16S)-16-(Difluoromethyl)-12-fluoro-6,6-dimethyl-5,6,7,8,16,17-hexahydro-4H,14H-1,19-(metheno)[1,4]oxazino[3,4-j]pyrazolo[4,3-g][1,5,9,11]benzoxatriazacyclotetradecin-4-one], for which the IC50 on KG-1 cell (OP2-FGFR1) was 2100 nM; against KM12 (TPM3-TRKA), below 0.2 nM.
In data set [1], `C[C@@H]1COc2cn3ncc4c3nc2N1Cc1cc(F)cnc1OCC(C)(C)NC4=O` [Comp. Ex. 2, reference compound] had a solubility of 4.9 µg/mL (≈ 11.9 µM). The microsomal CLint at 1 µM in data set [2] (setting [4]) was 21 µL/min/mg; in data set [2] (female, rat, liver microsomes), 5.9 µL/min/mg; in data set [2] (human, pooled liver microsomes), 3.9 µL/min/mg. For the same molecule, the results for the 50% inhibitory concentration (IC50) against KG-1 cell (OP2-FGFR1) and on KM12 (TPM3-TRKA) were 0.65 nM and 0.2 nM, respectively. The molecule also came in with an AUC in data set [3] of 18700 ng·h/mL. Further, the peak level in data set [3] (Cmax) was 2900 ng/mL. For the same molecule, the Tmax in data set [3] turned out to be 30 min.
With `C[C@@H]1CCOc2ccc(F)cc2CN2c3nc4c(cnn4cc3OC[C@H]2C(F)F)C(=O)N1` [Compound 5, (6R,16S)-16-(Difluoromethyl)-12-fluoro-6-methyl-5,6,7,8,16,17-hexahydro-4H,14H-1,19-(metheno)[1,4]oxazino[3,4-j]pyrazolo[4,3-g][1,5,9,11]benzoxatriazacyclotetradecin-4-one], the IC50 is 514 nM at KG-1 cell (OP2-FGFR1) and below 0.2 nM against KM12 (TPM3-TRKA).
Consider `O=C1NC2(CCOc3ccc(F)cc3CN3c4nc5c1cnn5cc4OC[C@H]3C(F)F)CC2` [Compound 6, (16′S)-16′-(Difluoromethyl)-12′-fluoro-4′H,5′H,7′H,8′H,14′H,16′H,17′H-spiro[cyclopropane-1,6′-[1,19](metheno)[1,4]oxazino[3,4-j]pyrazolo[4,3-g][1,5,9,11]benzoxatriazacyclotetradecin]-4′-one], for which the IC50 on KG-1 cell (OP2-FGFR1) is 385 nM; against KM12 (TPM3-TRKA), below 0.2 nM.
